{
  "source": "patent US10973840B2",
  "about": "“Methods of sensitizing tumor cells to weak base chemotherapeutic drugs” (SOCPRA SCIENCES SANTÉ ET HUMAINES S.E.C., priority 2017, dated 2021)",
  "key": {"[1]": {"system": "MDA-MB-231 tumor xenografts", "assay": "Chorioallantoic membrane (CAM) xenograft assay, MDA-MB-231", "assay_type": "in vivo, chick embryo", "conditions": "MDA-MB-231 on CAM", "description": "Fertilized eggs from white leghorn chicken were obtained from Public Health Agency of Canada (Nepean, ON). Ethics approval was obtained from the Ethics Committee on Animal Research of the University of Sherbrooke and all experimental procedures involving embryos were conducted in accordance with the regulations of the Canadian Council on Animal Care. Eggs were incubated in an Ova-Easy egg incubator (Brinsea) at 37° C. with 60% humidity. At Day 3, eggs were cracked as described^67. At Day 9, HT-1080 and MDA-MB-231 cell suspensions (1×10^6 and 2×10^6 cells, respectively) were mixed (1:1) with growth factor reduced Matrigel (BD Biosciences) in a total volume of 20 μl. Cell grafts were placed on top of the CAM and eggs were returned to the incubator for 96 h until Day 13 (n>6 chick embryos per cell line). When mentioned, 50 μl of Dox were added topically to the formed tumors (Day 13 after tumor cell grafting). At Day 16, chick embryos were euthanatized by decapitation. Tumors were removed and tumor volumes were calculated using the formula: (Dd^2/3). For RNA quantification, tumors were immediately snap-frozen in liquid nitrogen and kept at −80° C. until RNA extraction using the Trizol reagent.\nTo determine whether these observations were of relevance to tumor therapy in vivo, the inventors used an ex ovo chorioallantoic membrane (CAM) xenograft model in live chicken embryos^40. MDA-MB-231 or HT-1080 cells, or cells expressing either the NHE6^527-588 competing fragment or its scrambled counterpart were inoculated onto the CAM of 9-day-old chick embryos. After allowing 3 days for cells to engraft, tumors were treated with Doxorubicin or PBS. Four days later, chick embryos were euthanized, and tumors were removed for analysis (FIG. 10A). To first ascertain that tumors implanted in CAM developed hypoxia, total mRNA was extracted from tumors generated by untransfected HT-1080 cells and gene expression of the hypoxic markers CA9, GLUT1 and MCT4 was measured by qPCR. […]"}, "[2]": {"system": "HT-1080 fibrosarcoma cells", "assay": "MTT cell viability assay, HT-1080", "assay_type": "cell-based, human", "conditions": "for Fold change: HT-1080, IC50 at 1% O2 to IC50 at 21% O2; for IC50: Homo sapiens", "description": "(§1) Cells (5×10^3) were cultured in 96-well plates and pre-incubated under 21% O2 or 1% O2 for 4 h following the addition of drugs for 72 h. Cell viability was measured using the 3-(4,5-dimethylthiazol-2-yl)-2,5-diphenyltetrazolium bromide (MTT) dye (Life Technologies) according to manufacturer's instructions. Because hypoxic conditions may affect the reduction of MTT to formazan, incubation of all cell cultures with MTT were performed under normoxic conditions. Each experiment was performed in triplicate and at least three independent experiments were performed. Log-scale dose-response data were plotted on a graph and a three-parameter non-linear regression was applied to determine IC50 values. For calculation of the IC50s, both normoxic and hypoxic drug-treated samples were normalized with their untreated counterpart.\n(§2) To assess the role of pH in hypoxia-induced resistance to anthracyclines, the human breast cancer MDA-MB-231 and fibrosarcoma HT-1080 cell lines were incubated in the presence or absence of the commonly used anthracycline drugs, doxorubicin (Dox), daunorubicin (Dau) and the anthracycline analog drug, mitoxantrone (Mtx), under hypoxic (1% O2) or normoxic (21% O2) conditions for 72 hours. Cell viability was then assessed using the MTT assay. The impact of extracellular pH on Dox uptake by HT-1080 was also assessed."}, "[3]": {"system": "NHE6 or NHE9 knockdown cells", "assay": "MTT cell viability assay in NHE6 or NHE9 knockdown cells", "assay_type": "cell-based, human", "conditions": "for IC50: Homo sapiens", "description": "Lentiviruses and cell transduction pLKO.1-NHE6 and pLKO.1-NHE9 shRNA (Sigma-Aldrich) were co-transfected with ViraPower™ Lentiviral Packaging Mix (Invitrogen) into HEK293T cells according to manufacturer's instructions. Viruses were collected and concentrated by ultracentrifugation 72 h after transfection. HT-1080 and MDA-MB-231 cells were infected overnight with viruses and selected with puromycin (2 μg/ml) on the third day following transduction.\nas §1"}, "[4]": {"system": "MDA-MB-231 breast cancer cells", "assay": "MTT cell viability assay, MDA-MB-231", "assay_type": "cell-based, human", "conditions": "for IC50: Homo sapiens; for Fold change: MDA-MB-231, IC50 at 1% O2 to IC50 at 21% O2", "description": "as §1, §2"}, "[5]": {"conditions": "Baf 100 nM or Cq 10 μM where combined"}},
  "note": "Where two headings read alike, the source gives them in different places.",
  "data": [
    {"compound": "COc1cccc2c1C(=O)c1c(O)c3c(c(O)c1C2=O)C[C@@](O)(C(=O)CO)C[C@@H]3O[C@H]1C[C@H](N)[C@H](O)[C@H](C)O1", "note": "[Dox, doxorubicin]", "values": [
      {"measurement": "tumor growth", "setting": "[1]; 1 μM Dox", "result": "unaffected"},
      {"measurement": "tumor growth", "setting": "[1]; 5 μM Dox topical", "result": "significantly reduced"},
      {"measurement": "Fold change", "setting": "[2]", "result": 4.1, "unit": "fold"},
      {"measurement": "Fold change", "setting": "[2]; [5]", "result": 4.0, "unit": "fold"},
      {"measurement": "increase in resistance toward the drug by hypoxia", "setting": "[2]; HT-1080 cells (so in the source), 1% O2 vs 21% O2", "result": 5.5, "unit": "fold"},
      {"measurement": "IC50", "setting": "[2]; HT-1080, 72 h, HT-1080, 1% O2, 72 h, read-out: IC50 of anthracyclines", "result": 301, "unit": "nM"},
      {"measurement": "IC50", "setting": "[2]; HT-1080, 72 h, HT-1080, 21% O2, 72 h, read-out: IC50 of anthracyclines", "result": 73.4, "unit": "nM"},
      {"measurement": "IC50", "setting": "[2]; HT-1080, HT-1080, 1% O2, Baf 100 nM or Cq 10 μM where combined, read-out: IC50 of doxorubicin, cells treated with neutralizing agents", "result": 448, "unit": "nM"},
      {"measurement": "IC50", "setting": "[2]; HT-1080, HT-1080, 21% O2, Baf 100 nM or Cq 10 μM where combined, read-out: IC50 of doxorubicin, cells treated with neutralizing agents", "result": 113, "unit": "nM"},
      {"measurement": "IC50", "setting": "[3]; scrambled shRNA, 1% O2", "result": 459, "unit": "nM"},
      {"measurement": "IC50", "setting": "[3]; scrambled shRNA, 21% O2", "result": 179, "unit": "nM"},
      {"measurement": "IC50", "setting": "[3]; shRNA NHE6, 21% O2", "result": 421, "unit": "nM"},
      {"measurement": "IC50", "setting": "[3]; shRNA NHE9, 21% O2", "result": 202, "unit": "nM"},
      {"measurement": "increase in cell resistance to Dox", "setting": "[3]; NHE6 knockdown, normoxic cells", "result": 2.4, "unit": "fold"},
      {"measurement": "Fold (compared to scrambled 21% O2)", "setting": "[3]; scrambled shRNA, 1% O2", "result": 2.5, "unit": "fold"},
      {"measurement": "Fold (compared to scrambled 21% O2)", "setting": "[3]; scrambled shRNA, 21% O2", "result": 1.0, "unit": "fold"},
      {"measurement": "Fold (compared to scrambled 21% O2)", "setting": "[3]; shRNA NHE6, 21% O2", "result": 2.4, "unit": "fold"},
      {"measurement": "Fold (compared to scrambled 21% O2)", "setting": "[3]; shRNA NHE9, 21% O2", "result": 1.1, "unit": "fold"},
      {"measurement": "IC50", "setting": "[4]; MDA-MB-231, 72 h, MDA-MB-231, 1% O2, 72 h, read-out: IC50 of anthracyclines", "result": 688, "unit": "nM"},
      {"measurement": "IC50", "setting": "[4]; MDA-MB-231, 72 h, MDA-MB-231, 21% O2, 72 h, read-out: IC50 of anthracyclines", "result": 125, "unit": "nM"},
      {"measurement": "IC50", "setting": "[4]; MDA-MB-231, MDA-MB-231, 1% O2, Baf 100 nM or Cq 10 μM where combined, read-out: IC50 of doxorubicin, cells treated with neutralizing agents", "result": 852, "unit": "nM"},
      {"measurement": "IC50", "setting": "[4]; MDA-MB-231, MDA-MB-231, 21% O2, Baf 100 nM or Cq 10 μM where combined, read-out: IC50 of doxorubicin, cells treated with neutralizing agents", "result": 168, "unit": "nM"},
      {"measurement": "Fold change", "setting": "[4]", "result": 5.5, "unit": "fold"},
      {"measurement": "Fold change", "setting": "[4]; [5]", "result": 5.1, "unit": "fold"}
    ]}
  ]
}
